Measurements reported in US9481688B2, “(Thieno[2,3-b][1,5]benzoxazepin-4-yl)piperazin-1-yl compounds as dual activity H1 inverse agonists/5-HT2A antagonists” (Eli Lilly and Company, priority 2011, dated 2016).
Where a name gives a salt, the structure may show the parent alone.

Legend:
5-HT1D = 5-HT1D (Homo sapiens (Human), UniProt P28221); test: 5-HT1D binding
Text: (§1) Further, the compounds of the invention may be tested in binding assays and functional activity assays by well known methods for other physiologically important receptors such as, but not limited to, the hERG channel, other serotonin receptors (specifically 5-HT1B, 5-HT1D, receptors, lack of agonist activity at 5-HT2B receptors, 5-HT2C, 5-HT5, 5-HT6, and 5-HT7 receptors), dopaminergic receptors (specifically D1, D2, and D3), GABAA receptors, adrenergic receptors and monoamine transporters.

5-HT2B [1] = target: T1, 5-HT2B (Homo sapiens (Human), UniProt P41595); test: 5-HT2B agonist functional activity; format: biochemical
T1 sequence (P41595 whole entry, species assumed): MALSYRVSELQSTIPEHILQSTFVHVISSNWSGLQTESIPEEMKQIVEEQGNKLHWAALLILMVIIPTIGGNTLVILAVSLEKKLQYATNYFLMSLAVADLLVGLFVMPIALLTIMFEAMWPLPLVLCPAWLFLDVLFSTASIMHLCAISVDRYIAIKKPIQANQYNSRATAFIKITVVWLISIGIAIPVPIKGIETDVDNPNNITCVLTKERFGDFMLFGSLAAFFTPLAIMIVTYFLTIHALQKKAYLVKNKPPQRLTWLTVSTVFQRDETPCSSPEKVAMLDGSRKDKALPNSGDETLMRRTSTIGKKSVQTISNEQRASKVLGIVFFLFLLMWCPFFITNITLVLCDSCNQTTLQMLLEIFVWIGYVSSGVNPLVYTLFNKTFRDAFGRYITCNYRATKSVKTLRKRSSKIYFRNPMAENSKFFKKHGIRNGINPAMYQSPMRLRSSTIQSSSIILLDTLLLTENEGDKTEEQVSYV
Text: as §1

Dopamine D3 = Dopamine D3 (Homo sapiens (Human), UniProt P35462); test: Dopamine D3 binding; settings: dihydrochloride
Sequence of Dopamine D3 (P35462 whole entry): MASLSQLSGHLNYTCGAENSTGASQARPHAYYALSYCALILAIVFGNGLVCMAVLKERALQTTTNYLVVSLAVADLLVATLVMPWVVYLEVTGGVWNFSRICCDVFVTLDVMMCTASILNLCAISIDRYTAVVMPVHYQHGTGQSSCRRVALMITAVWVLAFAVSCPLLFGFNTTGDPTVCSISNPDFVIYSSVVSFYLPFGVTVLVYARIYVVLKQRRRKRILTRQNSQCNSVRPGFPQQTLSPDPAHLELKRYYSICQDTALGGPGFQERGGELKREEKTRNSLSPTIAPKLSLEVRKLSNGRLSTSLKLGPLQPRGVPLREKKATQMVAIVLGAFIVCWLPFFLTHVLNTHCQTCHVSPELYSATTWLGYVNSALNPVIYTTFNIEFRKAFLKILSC
Text: as §1

Adrenergic alpha1B = Adrenergic alpha1B (Homo sapiens (Human), UniProt P35368); test: Adrenergic alpha1B binding
Sequence of Adrenergic alpha1B (P35368 whole entry): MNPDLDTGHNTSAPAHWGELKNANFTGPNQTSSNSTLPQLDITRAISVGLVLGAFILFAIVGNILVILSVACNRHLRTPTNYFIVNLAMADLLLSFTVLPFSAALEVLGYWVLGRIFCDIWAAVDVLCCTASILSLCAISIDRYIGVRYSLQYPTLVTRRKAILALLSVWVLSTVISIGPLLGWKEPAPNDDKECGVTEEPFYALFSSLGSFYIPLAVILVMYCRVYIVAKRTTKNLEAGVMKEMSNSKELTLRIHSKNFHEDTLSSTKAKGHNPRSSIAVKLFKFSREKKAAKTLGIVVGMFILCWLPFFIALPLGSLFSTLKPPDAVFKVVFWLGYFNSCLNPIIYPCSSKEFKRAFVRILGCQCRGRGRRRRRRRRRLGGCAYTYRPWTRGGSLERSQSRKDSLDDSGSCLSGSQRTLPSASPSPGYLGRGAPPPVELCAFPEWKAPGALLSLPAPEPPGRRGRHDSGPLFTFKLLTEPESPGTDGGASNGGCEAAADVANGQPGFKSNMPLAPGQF
Text: as §1

[2] = target: human recombinant H1 receptor (Homo sapiens (Human), UniProt P35367); test: H1 competition binding assay ([3H]-Pyrilamine, SPA); settings: dihydrochloride
Sequence of human recombinant H1 receptor (P35367 whole entry): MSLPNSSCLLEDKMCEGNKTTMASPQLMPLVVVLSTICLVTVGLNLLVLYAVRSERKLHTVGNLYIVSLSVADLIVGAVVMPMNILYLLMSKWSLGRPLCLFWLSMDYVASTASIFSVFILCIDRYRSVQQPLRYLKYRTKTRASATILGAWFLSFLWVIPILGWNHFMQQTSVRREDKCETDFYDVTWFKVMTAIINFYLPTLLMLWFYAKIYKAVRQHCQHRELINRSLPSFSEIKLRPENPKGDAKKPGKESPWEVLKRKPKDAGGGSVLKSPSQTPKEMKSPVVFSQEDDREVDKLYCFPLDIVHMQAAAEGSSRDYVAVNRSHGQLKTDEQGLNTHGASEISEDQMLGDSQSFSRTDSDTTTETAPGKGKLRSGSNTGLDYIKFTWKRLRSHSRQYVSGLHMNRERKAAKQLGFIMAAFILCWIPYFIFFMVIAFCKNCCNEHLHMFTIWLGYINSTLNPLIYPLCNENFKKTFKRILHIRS
Method: [^3H]-Pyrilamine binding experiments are carried out in SPA (scintillation proximity assay) 96-well format. Membranes used in this assay are prepared from HEK-293 cells stably expressing recombinant H1 receptor (human). The incubation is initiated by the addition of a mixture of WGA PVT SPA beads (1 mg/well, Perkin Elmer (MA, USA) RPNQ0001) and 3 μg membranes to assay buffer (67 mM Tris; pH 7.6) containing 3.5 nM [^3H]-Pyrilamine and varying concentrations of the test compound (10 point concentration response curves). Non-specific binding is determined in the presence of 10 μM Triprolidine. Samples are incubated for 4 hr. at room temperature (22° C.) and then read in a Microbeta Trilux.
Curves are evaluated using a 4-parameter logistic nonlinear equation to obtain the concentration of competitor causing 50% inhibition of radioligand binding (IC50). Equilibrium dissociation constants (Ki) are calculated according to the equation Ki=IC50/(1+L/Kd), where L equals the concentration of radioligand used in the experiment and Kd equals the equilibrium dissociation constant of the radioligand for the receptor, determined from standard saturation analysis or homologous competition experiments. Reported values for Ki, where n values are indicated, are shown as geometric mean±the standard error of the mean (SEM), with the number of replicate determinations indicated by n. […]

5-HT5 = 5-HT5 (Homo sapiens (Human), UniProt P47898); test: 5-HT5 binding
Sequence of 5-HT5 (P47898 whole entry, species assumed): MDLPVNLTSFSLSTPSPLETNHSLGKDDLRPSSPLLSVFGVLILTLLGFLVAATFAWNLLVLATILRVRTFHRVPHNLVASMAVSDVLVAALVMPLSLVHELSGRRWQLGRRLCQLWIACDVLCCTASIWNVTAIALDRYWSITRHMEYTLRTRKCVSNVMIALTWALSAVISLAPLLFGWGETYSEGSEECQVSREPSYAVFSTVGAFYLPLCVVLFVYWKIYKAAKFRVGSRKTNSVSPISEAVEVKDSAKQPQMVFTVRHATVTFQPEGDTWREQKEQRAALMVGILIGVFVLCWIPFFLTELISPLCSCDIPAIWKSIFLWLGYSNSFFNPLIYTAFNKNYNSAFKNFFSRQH
Text: as §1

[3] = Plasma clearance in dog (intravenous); format: in vivo; settings: male, Beagle, 1 mg/kg
Method: Male Beagle dogs (body weight range 10-12 kg) are obtained from Marshall Bioresources, USA. Test compound is administered intravenously in solution (1 mL/kg) in 20% Captisol® in 22.5 mM phosphate buffer, pH 2, at a final drug concentration of 1.0 mg/mL (free base equivalents). Blood samples are obtained from the jugular vein over 24 hr. Samples of plasma are obtained by centrifugation and stored frozen (−20° C.) prior to analysis.
(§2) Frozen plasma samples are thawed to room temperature for bioanalysis of concentrations of test compound. A related internal standard compound in acetonitrile/methanol (1:1, v/v) is added to all samples of plasma (1:1, v/v). The samples are centrifuged to remove precipitated protein prior to analysis. The supernatants are analysed by injection and rapid gradient elution on a Javelin Betasil C18 column (20×2.1 mm cartridge, Mobile phase A: Water/1 M NH4HCO3, 2000:10 v/v, Mobile Phase B: MeOH/1 M NH4HCO3, 2000:10 v/v). The eluted analytes are detected by LC-MS-MS analysis using a Sciex API 4000 triple quadrupole mass spectrometer. Concentrations of compound are determined from standards prepared and analysed under identical conditions. Clearance is calculated using non-compartmental analysis in Watson 7.4, Thermo Fisher Scientific, Inc.

5-HT2B [4] = target: T1, 5-HT2B; test: 5-HT2B antagonist functional activity; format: biochemical
Text: as §1

Dopamine D1 = Dopamine D1 (Homo sapiens (Human), UniProt P21728); test: Dopamine D1 binding
Sequence of Dopamine D1 (P21728 whole entry): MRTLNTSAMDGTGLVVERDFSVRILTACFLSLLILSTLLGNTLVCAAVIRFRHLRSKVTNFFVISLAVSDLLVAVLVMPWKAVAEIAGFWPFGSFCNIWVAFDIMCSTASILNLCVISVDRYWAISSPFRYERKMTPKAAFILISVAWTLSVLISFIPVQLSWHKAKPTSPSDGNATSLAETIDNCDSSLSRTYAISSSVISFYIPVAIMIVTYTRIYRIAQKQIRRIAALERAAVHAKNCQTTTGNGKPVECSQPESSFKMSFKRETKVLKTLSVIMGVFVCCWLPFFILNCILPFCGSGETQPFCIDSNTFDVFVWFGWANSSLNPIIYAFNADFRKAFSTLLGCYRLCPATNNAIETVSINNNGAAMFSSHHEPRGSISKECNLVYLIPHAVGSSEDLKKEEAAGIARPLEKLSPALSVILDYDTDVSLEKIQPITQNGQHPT
Text: as §1

5-HT7 = 5-HT7 (Homo sapiens (Human), UniProt P34969); test: 5-HT7 binding
Sequence of 5-HT7 (P34969 whole entry, species assumed): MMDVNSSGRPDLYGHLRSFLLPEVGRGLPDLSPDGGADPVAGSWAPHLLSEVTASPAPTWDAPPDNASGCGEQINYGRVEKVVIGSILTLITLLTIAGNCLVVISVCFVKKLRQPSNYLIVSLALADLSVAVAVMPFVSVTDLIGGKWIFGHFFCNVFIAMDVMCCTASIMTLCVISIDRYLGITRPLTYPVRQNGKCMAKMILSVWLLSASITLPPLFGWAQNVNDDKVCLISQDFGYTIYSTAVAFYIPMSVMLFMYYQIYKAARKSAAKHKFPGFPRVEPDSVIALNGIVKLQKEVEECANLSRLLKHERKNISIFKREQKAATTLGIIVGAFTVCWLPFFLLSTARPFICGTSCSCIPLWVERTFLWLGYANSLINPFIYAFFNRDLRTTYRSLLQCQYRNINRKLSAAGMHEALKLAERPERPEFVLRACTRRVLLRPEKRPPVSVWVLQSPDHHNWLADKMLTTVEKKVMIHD
Text: as §1

[5] = target: recombinant 5-HT2A receptor (human) (Homo sapiens (Human), UniProt P28223); test: 5-HT2A competition binding assay ([3H]-Ketanserin, SPA); settings: dihydrochloride
Method: [^3H]-Ketanserin binding experiments are carried out in SPA 96-well format. Membranes used in this assay are prepared from AV-12 cells stably expressing recombinant 5-HT2A receptor (human). The incubation is initiated by the addition of a mixture of WGA YSi SPA beads (1 mg/well, Perkin Elmer (MA, USA), RPNQ0011) and 2 μg membranes to assay buffer (67 mM Tris, 0.5 mM EDTA; pH 7.6) containing 3.1 nM [^3H]-Ketanserin and varying concentrations of the test compound (10 point concentration response curves). Non-specific binding is determined in the presence of 20 μM 1-(1-Naphthyl) piperazine. Samples are incubated for 4 hr. at room temperature (22° C.) and then read in a Microbeta Trilux.

5-HT2B [6] = target: T1, 5-HT2B; test: 5-HT2B binding
Text: as §1

[7] = target: recombinant 5-HT2C receptor (human) (Homo sapiens (Human), UniProt P28335); test: 5-HT2C competition binding assay ([125I]-DOI, SPA); settings: dihydrochloride
Sequence of recombinant 5-HT2C receptor (human) (P28335 whole entry, looked up): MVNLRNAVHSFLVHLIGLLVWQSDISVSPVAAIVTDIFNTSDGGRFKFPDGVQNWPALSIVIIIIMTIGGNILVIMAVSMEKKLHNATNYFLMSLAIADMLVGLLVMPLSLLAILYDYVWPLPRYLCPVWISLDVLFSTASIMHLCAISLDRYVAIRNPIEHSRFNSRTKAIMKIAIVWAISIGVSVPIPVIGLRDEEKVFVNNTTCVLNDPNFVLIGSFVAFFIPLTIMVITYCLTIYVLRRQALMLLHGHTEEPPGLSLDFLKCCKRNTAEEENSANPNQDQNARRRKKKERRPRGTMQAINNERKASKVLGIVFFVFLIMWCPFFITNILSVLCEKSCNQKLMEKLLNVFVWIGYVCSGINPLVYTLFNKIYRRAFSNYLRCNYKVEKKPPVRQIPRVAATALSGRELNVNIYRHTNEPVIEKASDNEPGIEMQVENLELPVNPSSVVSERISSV
Method: [^125I]-(±)DOI binding experiments are carried out in SPA 96-well format. Membranes used in this assay are prepared from AV-12 cells stably expressing recombinant 5-HT2C receptor (human). The incubation is initiated by the addition of a mixture of WGA PVT SPA beads (0.5 mg/well, Perkin Elmer (MA, USA), RPNQ0001) and 2.5 μg membranes to assay buffer (50 mM Tris-HCl, 10 mM MgCl2, 0.5 mM EDTA, 10 μM pargyline, 0.1% ascorbic acid, pH7.4) containing 0.2 nM [[^125I]-(±)DOI and varying concentrations of the test compound (10 point concentration response curves). Non-specific binding is determined in the presence of 20 μM 1-(1-Naphthyl) piperazine. Samples are incubated for 4 hr. at room temperature (22° C.) and then read in a Microbeta Trilux.
Curves are evaluated using a 4-parameter logistic nonlinear equation to obtain the concentration of competitor causing 50% inhibition of radioligand binding (IC50). Equilibrium dissociation constants (Ki) are calculated according to the equation Ki=IC50/(1+L/Kd), where L equals the concentration of radioligand used in the experiment and Kd equals the equilibrium dissociation constant of the radioligand for the receptor, determined from standard saturation analysis or homologous competition experiments. […]

[8] = Plasma clearance in rat (intravenous); format: in vivo; settings: 1 mg/kg, dihydrochloride
Method: Male Sprague Dawley rats (body weight range 250-320 g) with indwelling femoral arterial cannulae are obtained from Charles River, Wilmington, Mass. 01887, USA. Test compound is administered intravenously in solution (1 mL/kg) in 20% Captisol® in 22.5 mM phosphate buffer, pH 2, at a final drug concentration of 1.0 mg/mL (free base equivalents). Blood samples are obtained using the indwelling cannula over 24 hr. Samples of plasma are obtained by centrifugation and stored frozen (−20° C.), or on dry ice, prior to analysis.
as §2

5-HT2A receptor = 5-HT2A receptor (Mus musculus (Mouse), UniProt P35363); test: Inhibition of DOI induced headshake activity; format: in vivo; settings: 10 mg/kg PO, mice, 60 min. pre-treatment, read-out: inhibition of DOI induced headshake response
Text: J Neurosci Methods. […] Recording Environment. […] Relative humidity averages approximately 50%. […] Study Design and Dosing. […] Data Collection. […] Statistical Analysis.

Sequence of 5-HT1D (P28221 whole entry, species assumed): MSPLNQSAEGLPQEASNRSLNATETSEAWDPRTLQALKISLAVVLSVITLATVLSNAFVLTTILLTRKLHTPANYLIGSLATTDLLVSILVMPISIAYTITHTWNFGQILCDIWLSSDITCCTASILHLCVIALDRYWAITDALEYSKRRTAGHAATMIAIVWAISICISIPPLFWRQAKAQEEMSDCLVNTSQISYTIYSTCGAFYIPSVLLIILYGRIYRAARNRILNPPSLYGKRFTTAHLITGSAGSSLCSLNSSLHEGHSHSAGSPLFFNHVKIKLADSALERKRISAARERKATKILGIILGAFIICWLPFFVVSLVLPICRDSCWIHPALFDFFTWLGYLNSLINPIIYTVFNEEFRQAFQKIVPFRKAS

Cc1ccc2c(c1)Oc1sc(Cl)cc1C(N1CCN(CC(C)(C)C(=O)O)CC1)=N2 [Example 3, 3-[4-(2-chloro-8-methyl-thieno[2,3-b][1,5]benzoxazepin-4-yl)piperazin-1-yl]-2,2-dimethyl-propanoic acid dihydrochloride]
Ki (5-HT1D): > 3.98 µM | EC50 (5-HT2B [1]): > 10 µM | Ki (Dopamine D3): > 5.68 µM | Ki (Adrenergic alpha1B): > 14.7 µM | Ki [2]: 0.0588 µM | Ki (5-HT5): > 8.81 µM | clearance [3]: 3.2 mL/min/kg | Kb (5-HT2B [4]): 0.0786 µM | Ki (Dopamine D1): 0.592 µM | Ki (5-HT7): > 2.06 µM | Ki [5]: 0.00701 µM | Ki (5-HT2B [6]): 0.121 µM | Ki [7]: 0.328 µM | clearance [8]: 14.5 (+/−1.4, n = 3) mL/min./Kg | inhibition at 10 mg/kg (5-HT2A receptor): 100%
